The record followed here is PubChem BioAssay (NCI).

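Step 1: Grow cells in 96-well plates. Step 2: Expose to compound for 48 hours at 5 concentrations. Step 3: Interpolate endpoints linearly; if unreached, use highest concentration. At the GI50, growth is halved. TGI marks complete inhibition of growth.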

What all share (assay): inhibition of tumour cell growth, NCI panel, 48 h
For test [1], the system named is HOP-92 NSCLC.
In test [2] the test system is SK-OV-3 ovarian.
For test [3], the system named is CAKI-1 renal.
Test [4] concerns NCI/ADR-RES ovarian.
The subject of test [5] is HCT-15 colon.
The test system of test [6] is PC-3 prostate.
The subject of test [7] is MALME-3M melanoma.
Test [8] deals with CCRF-CEM leukemia.

`CCCNc1nc(-c2ccc(OC)cc2)nc2ccccc12`: the GI50 was 9.06 µM in test [1]; 18.9 µM in test [2]; 13.3 µM in test [3]; 11 µM in test [4]; 14.3 µM in test [5]; 14.9 µM in test [6]. Also, the values for the GI50 in test [7] and in test [8] were 15.1 µM and 11.1 µM, respectively. Besides, the TGI is 29.3 µM in test [1]; 53 µM in test [2]; 27.9 µM in test [3]; 36.2 µM in test [4]; 31.9 µM in test [5]; 46.5 µM in test [6]. The TGI is 29.3 µM in test [7] and 68.3 µM in test [8].
For the compound `NC(=O)NC(=O)CI`, the GI50 in test [1] was 1.65 µM; in test [2], 27.4 µM; in test [3] it was 2.32 µM; in test [4], 18.7 µM; in test [5], 1.68 µM; in test [6] it was 12.6 µM. In addition, the GI50 in test [7] is 1.42 µM; in test [8] it was 0.757 µM. Also, the TGI is 3.89 µM in test [1]; > 56.2 µM in test [2]; 5.51 µM in test [3]; 41.9 µM in test [4]; 3.55 µM in test [5]; 26.8 µM in test [6]. The values for the TGI in test [7] and in test [8] were 3.32 µM and 2.31 µM, respectively.
As for `CC(=O)Nc1ccc(C(=O)N[C@@H]2C(=O)N3[C@@H]2SC(C)(C)[C@@H]3C(=O)O)cn1`, the TGI in test [1], in test [2], in test [3], in test [4], in test [5] and in test [6] was > 100 µM each time. In addition, the TGI in test [7] and in test [8] was > 100 µM throughout.
Turning to `N#C/C(=C/N1CCN(C(=O)c2ccco2)C1=S)C(N)=O`, the GI50 in test [1] is 25.5 µM; in test [2], 42.6 µM; in test [3], 11.8 µM; in test [4] it was 25.4 µM; in test [5], 3.82 µM; in test [6], 35.6 µM. Also, the values for the GI50 in test [7] and in test [8] were 12.5 µM and > 100 µM, respectively. In addition, the TGI in test [1] is > 100 µM; in test [2], > 100 µM; in test [3], 34.4 µM; in test [4], 59.6 µM; in test [5] it was > 100 µM; in test [6], > 100 µM. Also, the figures for the TGI in test [7] and in test [8] were 56.8 µM and > 100 µM, respectively.
Regarding `O=Cc1ccc(C(F)(F)F)cc1.[C-]#[O+].[C-]#[O+].[C-]#[O+].[Cr]`, the GI50 in test [1] was 24.8 µM; in test [2], 31.3 µM; in test [3], 24.6 µM; in test [4], 28.4 µM; in test [5] it was 26.1 µM; in test [6] it was 31.2 µM. For the same compound, the GI50 is 26.8 µM in test [7] and 9.87 µM in test [8]. Further, the TGI is > 100 µM in test [1]; > 100 µM in test [2]; > 100 µM in test [3]; > 100 µM in test [4]; 82.7 µM in test [5]; > 100 µM in test [6]. The TGI stood at 91 µM in test [7] and 65.1 µM in test [8].
With `Cc1nc2cc(O)c(O)cc2cc1Oc1ccc(NC(=O)Nc2ccc(Cl)c(Cl)c2)cc1`, the GI50 in test [1] is 2.85 µM; in test [2], 11.7 µM; in test [3], 4.96 µM; in test [4], 8.74 µM; in test [5], 5.47 µM; in test [6] it was 4.36 µM. The GI50 in test [7] was 8.6 µM; in test [8], 6.19 µM. Also, the TGI is 16.7 µM in test [1]; > 32.5 µM in test [2]; 30 µM in test [3]; > 32.5 µM in test [4]; > 32.5 µM in test [5]; > 32.5 µM in test [6]. In addition, the figures for the TGI in test [7] and in test [8] were 26 µM and 21.8 µM, respectively.
Turning to `CCOC1NC(=O)Oc2ccccc21` (centres undefined), the TGI in test [1], in test [2], in test [3], in test [4], in test [5] and in test [6] was > 100 µM throughout. Further, the TGI in test [7] and in test [8] was > 100 µM each time.
For the compound `Cc1ccc(/C=C(\C#N)n2nnc3cc(F)c(F)cc32)cc1`, the GI50 in test [1] was 2.37 µM; in test [2], 4.49 µM; in test [3] it was 1.77 µM; in test [4] it was 2.53 µM; in test [5] it was 0.651 µM; in test [6], 5.16 µM. The GI50 was 15.9 µM in test [7] and 1.81 µM in test [8]. The TGI is 8.32 µM in test [1]; 33.7 µM in test [2]; 19.1 µM in test [3]; > 100 µM in test [4]; 15.3 µM in test [5]; 24.3 µM in test [6]. Moreover, the TGI in test [7] is 56.7 µM; in test [8] it was > 100 µM.
`Cn1c2ccccc2c2c3c(c4c5ccccc5n(CCCCCC#N)c4c21)C(=O)N(O)C3=O`: the GI50 was 1.77 µM in test [1]; 0.596 µM in test [2]; 1.37 µM in test [3]; 0.873 µM in test [4]; 1.82 µM in test [5]; 2.22 µM in test [6]. Moreover, the figures for the GI50 in test [7] and in test [8] were 2.22 µM and 0.374 µM, respectively. For the same compound, the TGI in test [1] stood at 6.99 µM; in test [2], 7.45 µM; in test [3], 3.03 µM; in test [4], 24.2 µM; in test [5], 50.9 µM; in test [6] it was 8.4 µM. The TGI was 7.05 µM in test [7] and > 100 µM in test [8].
As for `COC(=O)c1ccc2c(c1)nc(-c1ccc(Cl)cc1)n2-c1cc(C(C)(C)C)[nH]n1`, the GI50 was 1.15 µM in test [1]; 3.71 µM in test [2]; 2.25 µM in test [3]; 2.72 µM in test [4]; 4.36 µM in test [5]; 2.93 µM in test [6]. Moreover, the GI50 in test [7] was 3.25 µM; in test [8] it was 4.91 µM. For the same compound, the TGI in test [1] was 8.02 µM; in test [2], 31 µM; in test [3], 12.8 µM; in test [4], 7.35 µM; in test [5], > 100 µM; in test [6], 15.7 µM. Besides, the TGI in test [7] was 15.6 µM; in test [8], > 100 µM.
`COC(=O)c1oc2c(C(=O)/C=C/c3ccc(OC)cc3)c(OCCCN3CCCCC3)ccc2c1C`: the GI50 in test [1] was 0.808 µM; in test [2], 1.25 µM; in test [3] it was 2.09 µM; in test [4], 2.31 µM; in test [5] it was 0.901 µM; in test [6], 2.39 µM. Also, the GI50 in test [7] was 1.51 µM; in test [8], 0.783 µM. The TGI in test [1] came to 2.59 µM; in test [2] it was 4.35 µM; in test [3] it was 4.96 µM; in test [5] it was 2.35 µM; in test [6] it was 7.02 µM; in test [7] it was 3.3 µM. This compound displayed a TGI in test [8] of 3.4 µM.
With `COc1ccc(Cc2ccccc2C(=O)O)c2ccccc12`, the TGI in test [1] is 61.9 µM; in test [2], > 100 µM; in test [3] it was > 100 µM; in test [4], > 100 µM; in test [5], 92.4 µM; in test [6], > 100 µM. Besides, the TGI in test [7] amounted to 59.3 µM; in test [8] it was 95.3 µM.
On to `COc1ccc2c(CNCCCCO)cc3cc4c(cc3c2c1)OCO4`, for which the GI50 in test [1] was 0.598 µM; in test [2] it was 4.2 µM; in test [3], 0.628 µM; in test [4], 1.45 µM; in test [5] it was 1.43 µM; in test [6], 0.986 µM. Further, the GI50 was 1.65 µM in test [7] and 0.777 µM in test [8]. Also, the TGI in test [1] came out at 4.4 µM; in test [2] it was 23.8 µM; in test [3] it was 2.96 µM; in test [4] it was 8.12 µM; in test [5] it was 8.61 µM; in test [6] it was 7.18 µM. In addition, the TGI in test [7] came to 4.08 µM; in test [8], 10.9 µM.
As for `Nc1nc(Cl)nc2c1ncn2C1O[C@H](CO)[C@@H](O)[C@@H]1F` (some centres undefined), the GI50 in test [1] is 0.0653 µM; in test [2] it was 0.761 µM; in test [3] it was 0.326 µM; in test [4] it was 0.0498 µM; in test [5], 4.73 µM; in test [6], > 24.6 µM. Besides, the GI50 was 43.4 µM in test [7] and 0.0281 µM in test [8]. In addition, the TGI in test [1] is 4.8 µM; in test [2] it was > 100 µM; in test [4] it was > 100 µM; in test [5], > 100 µM; in test [6], > 100 µM; in test [7], > 100 µM. Also, the TGI in test [8] is > 100 µM.
`O=Nc1c(-c2cccc([N+](=O)[O-])c2)nc2ncccn12`: the GI50 was 3.19 µM in test [1]; 22.8 µM in test [2]; 10.4 µM in test [3]; 15.9 µM in test [4]; 3.77 µM in test [5]; 13.7 µM in test [6]. For the same compound, the values for the GI50 in test [7] and in test [8] were 14.5 µM and 1.86 µM, respectively. For the same compound, the TGI in test [1] stood at 21.6 µM; in test [2] it was 59.6 µM; in test [3] it was 22.6 µM; in test [4], 71.7 µM; in test [5], 17.8 µM; in test [6] it was 36.3 µM. Besides, the TGI stood at 29.1 µM in test [7] and 4.44 µM in test [8].
